Test results reported in patent US20260130894A1, “COMPOSITION COMPRISING ISOQUINOLINE DERIVATIVE AS ACTIVE INGREDIENT FOR PREVENTION OR TREATMENT OF PARKINSON'S DISEASE” (ALTMEDICAL CO., LTD., priority 2022, published 2026).

How the values were obtained:
[1] = system: BEAS-2B cell line, in which PINK1 was knocked down; experiment: Mitophagy activity in PINK1 knockdown (shPINK1) BEAS-2B cells (FACS); format: cell-based, human; conditions: CCCP 10 μM, CD1-012 15 μM, 18 hours (FIG. 7)
Text: In this example, it was confirmed whether the mitophagy activation function of the isoquinoline derivative according to the present invention is dependent on the PINK1-Parkin pathway. […]
In the following example, it was confirmed whether the novel isoquinoline derivative according to the present invention has a therapeutic effect of preventing or improving Parkinson's disease. Most of all, it was confirmed whether the treatment with the isoquinoline derivative improves mitochondrial dysfunction of a Parkinson's disease cell model. To this end, first, the induction of mitophagy by CD1-012 was verified. […] In addition, to analyze whether the mitophagy-promoting activity of CD1-012 is dependent on PINK1, PINK1 expression was inhibited (using shPNIK1) in BEAS-2B cells, which is a human normal lung cell line expressing a mitochondrial fluorescent protein, and mitophagy activity was analyzed by flow cytometry (FACS).

[2] = system: mitochondrial reactive oxygen species (ROS); experiment: Mitochondrial reactive oxygen species, MitoSOX assay; format: cell-based; conditions: CD1-012 10 μM or 15 μM, CCCP 10 μM, 24 hours (FIG. 6)
Method: (§1) It was confirmed whether the isoquinoline derivative according to the present invention induces mitochondrial dysfunction, similar to CCCP. To this end, the CD1-012 (10 μM or 15 μM) and CCCP (10 μM) were treated for 24 hours, and the mitochondrial membrane potential and mitochondrial reactive oxygen species (ROS) levels in each sample were analyzed. Mitochondrial membrane potential was analyzed using the TMRM (tetramethylrhodamine methyl ester) assay, and mitochondrial ROS levels were analyzed using the MitoSOX assay.

[3] = system: mitochondrial membrane potential; experiment: Mitochondrial membrane potential, TMRM assay; format: cell-based; conditions: CD1-012 10 μM or 15 μM, CCCP 10 μM, 24 hours (FIG. 6)
Method: as §1

BEAS-2B cell line = experiment: Mitophagy activity in BEAS-2B cells expressing mt-Keima (FACS, confocal microscope, mito-YFP); format: cell-based, human; conditions: BEAS-2B mt-Keima (FIG. 5)
Method: To analyze the mitophagy-promoting activity effect of the CD1-012 synthesized in the Example 1, the BEAS-2B cell line, which is a human normal lung cell line, was induced to express the mt-Keima fluorescent protein. Following this, the CD1-012 (15 μM) and the compound of Comparative Example 1, CCCP (10 μM), were treated for 24 hours. After the treatment, the mitophagy activity of each sample was measured, and the results were represented in FIGS. 1A to 1C.
Specifically, FIG. 1A represents the analysis results using flow cytometry (FACS) (treatment of CD1-012 at 15 μM for 24 hours), FIG. 1B represents the analysis results using a confocal microscope (treatment of CD1-012 at 15 μM for 18 hours), and FIG. 1C represents the measurement results of the quantitative changes in the mitochondria using a fluorescent protein, mito-YFP, which includes a targeting sequence to transport protein to the mitochondria (treatment of CD1-012 at 20 μM for 24 hours).
It was confirmed whether CD1-012 synthesized in Example 1 promotes mitophagy activity in a concentration- and time-dependent manner. To this end, the CD1-012 was treated at various concentrations or at a fixed concentration (15 μM) for different treatment durations in the BEAS-2B cell line expressing mt-Keima, and mitophagy activity was measured using a flow cytometer.
It was confirmed whether CD1-012 synthesized in Example 1 specifically increases only mitophagy activity. To this end, the BEAS-2B cell line expressing mt-Keima was treated with CD1-012 (15 μM) or Comparative Example 1 (CCCP, 10 μM) for 18 hours, and mitophagy activity was analyzed using a confocal microscope. Additionally, to measure autophagy activity, the BEAS-2B cell line expressing Keima fluorescent protein was incubated in Hanks' balanced salt solution (HBSS) for 3 hours to induce a starvation condition (starv.), and the results were compared with samples treated with CD1-012 (15 μM) for 18 hours using a confocal microscope.
To this end, the human normal lung cell line BEAS-2B, expressing mt-Keima fluorescent protein, was treated with CD1-012, Comparative Example 2 (palmatine), or Comparative Example 3 (berberine) at various concentrations, and the mitophagy-inducing activity of each sample was compared.

With `N#CC(C#N)=NNc1cccc(Cl)c1` [CCCP, Carbonyl cyanide 3-chlorophenylhydrazone, reference compound] the “mitophagy activation in PINK1 knockdown cell line (shPINK1) compared to control cell line (shNT)” value [1] was “significantly decreased”, the “mitochondrial ROS levels” value [2] was “significantly increased” and the mitochondrial membrane potential [3] was “significantly reduced”.
`COc1ccc2cc3[n+](cc2c1OC)CCc1cc2c(cc1-3)OCO2` [berberine, Berberine, reference compound] was tested, and the “concentration at which mitophagy activity reached its maximum” value (BEAS-2B cell line) was 80 µM.
In the case of `COc1cc2c(cc1OC)-c1cc3ccc(OC)c(OC)c3c[n+]1CC2` [palmatine, Palmatine, reference compound], the “concentration at which mitophagy activity reached its maximum” value (BEAS-2B cell line) is reported as 400 µM.
